Source: article PMC6381791, “Filamentous Aggregates Are Fragmented by the Proteasome Holoenzyme” (Cell Reports, 2019)
Numbered stars: 1 amine (or outer) side, 2 acyl side, 3 side chain; on linkers, the order of the positions; unused ones are H or OH. Peptide text beside a SMILES is read from it. * marks the point of attachment. AMC = Cc1cc(=O)oc2cc(N*)ccc12; Suc = O=C(CCC(=O)[*:2])[*:1]

Tests used:
[1] = biological target: T1, α-synuclein (αS), fibrils (Homo sapiens, UniProt P37840); assay: TIRF single-aggregate fluorescence; format: binding; details: 30 nM pFTAA in PBS, 100 nM αS (monomer equivalent); binds amyloid fibrils
T1 construct: gene SNCA; untagged wild-type recombinant from E. coli BL21(DE3) pLysS; fibrils assembled in PBS with shaking

[2] = biological target: T2, 26S proteasome holoenzyme (proteolytic core sites) (Homo sapiens, UniProt P28074); assay: AMC fluorescence ([…] nm); format: biochemical; details: 1 μM substrate, 40 nM proteasome, alone or with heparin or tau aggregates
T2 construct: gene PSMB5; 26S holoenzyme (20S core with one or two 19S caps) purified from HEK293T via Rpn11-His6-TEV-biotin, TEV eluted; with Proteasome subunit beta type-1; Proteasome subunit beta type-2; Proteasome subunit beta type-3; Proteasome subunit beta type-4; Proteasome subunit alpha type-1; Proteasome subunit alpha type-2; Proteasome subunit alpha type-3; Proteasome subunit alpha type-4; Proteasome subunit alpha type-5; Proteasome subunit alpha type-6; Proteasome subunit alpha type-7; 26S proteasome non-ATPase regulatory subunit 14

Row | SMILES | TIRF single-aggregate fluorescence [1] | AMC fluorescence (340/440 nm) [2]
1 | O=C(O)Cc1cc(-c2ccc(C(=O)O)s2)sc1-c1ccc(-c2sc(-c3ccc(C(=O)O)s3)cc2CC(=O)O)s1 [pFTAA] | Fibrils assembled from αS could be reproducibly detected | –
2 | Cc1cc(=O)oc2cc(NC(=O)[C@H](Cc3ccc(O)cc3)NC(=O)[C@@H](NC(=O)[C@H](CC(C)C)NC(=O)[C@H](CC(C)C)NC(=O)CCC(=O)O)C(C)C)ccc12 [LLVY-AMC] (Suc-LLVY-{AMC}) | – | proteasomal peptidase activity against a model substrate, suc-Leu-Leu-Val-Tyr-7-amino-4-methylcoumarin (LLVY-AMC)
